Measurements as given in ChEMBL document CHEMBL5465560, “Selectivity Literature for EUbOPEN Chemogenomic Library” (2024).
pIC50: −log10 of the molar value.

Tests used:
Melanocortin receptor 3 = Melanocortin receptor 3 (Homo sapiens, UniProt P41968); assay: Selectivity interaction (Melanocortin MC3 receptor binding assay, human recombinant ) EUB0000877a MC3R
[1] = target: Dual specificity protein kinase CLK2 (Homo sapiens, UniProt P49760); assay: Selectivity interaction (KinomeScan (DiscoverX)) EUB0001550a CLK2; details: at 1 µM
Sequence of Dual specificity protein kinase CLK2 (P49760 whole entry, looked up): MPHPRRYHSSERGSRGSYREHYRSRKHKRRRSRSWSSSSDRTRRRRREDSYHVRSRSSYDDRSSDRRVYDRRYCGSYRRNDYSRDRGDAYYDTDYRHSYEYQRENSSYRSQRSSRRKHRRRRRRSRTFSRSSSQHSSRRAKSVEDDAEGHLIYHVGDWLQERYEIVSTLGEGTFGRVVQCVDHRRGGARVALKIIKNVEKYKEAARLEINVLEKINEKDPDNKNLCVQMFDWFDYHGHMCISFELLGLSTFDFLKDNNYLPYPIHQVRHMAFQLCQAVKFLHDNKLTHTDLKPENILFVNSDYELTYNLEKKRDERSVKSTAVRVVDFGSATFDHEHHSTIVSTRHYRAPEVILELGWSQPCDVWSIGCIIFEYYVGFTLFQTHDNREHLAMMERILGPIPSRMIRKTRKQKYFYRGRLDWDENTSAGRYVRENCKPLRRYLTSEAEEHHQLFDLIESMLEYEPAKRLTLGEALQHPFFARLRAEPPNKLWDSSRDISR

[2] = target: Calcium/calmodulin-dependent protein kinase type II subunit beta (Homo sapiens) (UniProt Q13554); assay: Selectivity interaction (Kinase panel (Invitrogen)) EUB0000639a CAMK2B; details: at 200 nM
[3] = target: Cyclin-dependent kinase 14 (Homo sapiens) (UniProt O94921); assay: Selectivity interaction (ActivX KiNativ screen (kinase selectivity in THP-1 cell lysates)) EUB0000639a CDK14; assay type: subcellular; details: lysate, at 1 µM
Sequence of Cyclin-dependent kinase 14 (Homo sapiens) (O94921 whole entry): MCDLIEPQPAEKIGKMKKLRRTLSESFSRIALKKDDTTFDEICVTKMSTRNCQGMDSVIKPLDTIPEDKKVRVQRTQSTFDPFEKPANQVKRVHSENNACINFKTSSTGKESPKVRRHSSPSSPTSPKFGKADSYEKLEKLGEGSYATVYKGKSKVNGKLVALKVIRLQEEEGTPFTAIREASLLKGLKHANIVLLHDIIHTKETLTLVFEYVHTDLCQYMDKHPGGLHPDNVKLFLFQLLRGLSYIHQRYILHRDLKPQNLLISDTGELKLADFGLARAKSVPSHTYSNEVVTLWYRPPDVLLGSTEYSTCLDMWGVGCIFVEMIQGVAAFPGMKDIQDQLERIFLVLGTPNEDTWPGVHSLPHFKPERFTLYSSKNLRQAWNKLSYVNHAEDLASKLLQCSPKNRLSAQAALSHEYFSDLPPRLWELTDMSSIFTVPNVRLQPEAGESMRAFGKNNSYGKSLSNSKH

[4] = target: MAP kinase-interacting serine/threonine-protein kinase 1 (Homo sapiens) (UniProt Q9BUB5); assay: Selectivity interaction (KinomeScan (DiscoverX)) EUB0000092b MKNK1; details: at 10 µM
Sequence of MAP kinase-interacting serine/threonine-protein kinase 1 (Homo sapiens) (Q9BUB5 whole entry, looked up): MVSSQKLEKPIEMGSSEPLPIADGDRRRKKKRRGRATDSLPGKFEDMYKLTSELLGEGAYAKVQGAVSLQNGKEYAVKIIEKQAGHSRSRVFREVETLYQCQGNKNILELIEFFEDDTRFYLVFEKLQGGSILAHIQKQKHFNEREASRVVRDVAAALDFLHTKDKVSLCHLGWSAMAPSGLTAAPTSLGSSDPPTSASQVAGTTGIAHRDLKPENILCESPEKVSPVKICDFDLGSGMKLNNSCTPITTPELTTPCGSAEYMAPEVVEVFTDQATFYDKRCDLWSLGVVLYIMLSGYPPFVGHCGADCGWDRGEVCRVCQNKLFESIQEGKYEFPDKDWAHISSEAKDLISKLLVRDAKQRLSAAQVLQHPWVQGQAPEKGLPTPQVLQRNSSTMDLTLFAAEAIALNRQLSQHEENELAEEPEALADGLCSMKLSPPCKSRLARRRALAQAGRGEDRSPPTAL

Insulin receptor = Insulin receptor (Homo sapiens, UniProt P06213); assay: Selectivity interaction (Kinase screening (Nanosyn)) EUB0000604a INSR
Sequence of Insulin receptor (P06213 28-758 limits assumed): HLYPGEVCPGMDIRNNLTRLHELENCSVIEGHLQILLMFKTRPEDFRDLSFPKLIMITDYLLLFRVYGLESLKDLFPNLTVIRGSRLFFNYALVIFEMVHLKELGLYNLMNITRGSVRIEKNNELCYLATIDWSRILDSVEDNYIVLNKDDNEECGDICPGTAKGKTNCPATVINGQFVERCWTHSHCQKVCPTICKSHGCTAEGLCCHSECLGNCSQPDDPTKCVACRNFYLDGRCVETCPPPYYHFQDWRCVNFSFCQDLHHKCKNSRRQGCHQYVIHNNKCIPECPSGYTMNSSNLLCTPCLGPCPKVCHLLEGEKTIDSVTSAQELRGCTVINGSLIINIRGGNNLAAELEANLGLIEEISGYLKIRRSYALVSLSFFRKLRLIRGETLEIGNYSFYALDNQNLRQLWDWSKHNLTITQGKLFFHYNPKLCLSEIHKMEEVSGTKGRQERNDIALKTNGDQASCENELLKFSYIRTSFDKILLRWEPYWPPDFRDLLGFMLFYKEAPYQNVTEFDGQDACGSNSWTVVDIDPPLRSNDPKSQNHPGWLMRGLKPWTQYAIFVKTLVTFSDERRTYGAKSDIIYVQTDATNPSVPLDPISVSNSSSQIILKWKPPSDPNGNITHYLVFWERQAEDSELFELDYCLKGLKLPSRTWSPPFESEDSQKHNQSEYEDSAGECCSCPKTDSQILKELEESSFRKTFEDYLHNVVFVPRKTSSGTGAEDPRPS
Sequence of Insulin receptor (P06213 763-1382 limits assumed): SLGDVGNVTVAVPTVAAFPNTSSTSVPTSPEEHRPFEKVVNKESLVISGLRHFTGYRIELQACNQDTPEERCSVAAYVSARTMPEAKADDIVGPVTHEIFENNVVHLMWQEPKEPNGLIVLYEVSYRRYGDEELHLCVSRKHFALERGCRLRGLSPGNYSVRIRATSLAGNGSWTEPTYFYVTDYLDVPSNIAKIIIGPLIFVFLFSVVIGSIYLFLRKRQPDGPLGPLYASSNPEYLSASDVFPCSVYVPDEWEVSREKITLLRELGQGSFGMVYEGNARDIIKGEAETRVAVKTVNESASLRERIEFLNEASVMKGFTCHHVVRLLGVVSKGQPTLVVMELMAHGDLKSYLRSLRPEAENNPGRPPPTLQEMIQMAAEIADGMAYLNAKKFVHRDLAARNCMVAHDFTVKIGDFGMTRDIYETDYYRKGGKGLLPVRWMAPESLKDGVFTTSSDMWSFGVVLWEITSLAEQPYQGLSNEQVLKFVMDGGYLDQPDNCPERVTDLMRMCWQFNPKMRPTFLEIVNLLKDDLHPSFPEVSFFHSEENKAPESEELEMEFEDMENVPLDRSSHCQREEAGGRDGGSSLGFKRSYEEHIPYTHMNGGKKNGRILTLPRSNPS

[5] = target: T1, MAP kinase-activated protein kinase 5 (Homo sapiens) (UniProt Q8IW41); details: at 10 µM
T1 sequence (whole entry): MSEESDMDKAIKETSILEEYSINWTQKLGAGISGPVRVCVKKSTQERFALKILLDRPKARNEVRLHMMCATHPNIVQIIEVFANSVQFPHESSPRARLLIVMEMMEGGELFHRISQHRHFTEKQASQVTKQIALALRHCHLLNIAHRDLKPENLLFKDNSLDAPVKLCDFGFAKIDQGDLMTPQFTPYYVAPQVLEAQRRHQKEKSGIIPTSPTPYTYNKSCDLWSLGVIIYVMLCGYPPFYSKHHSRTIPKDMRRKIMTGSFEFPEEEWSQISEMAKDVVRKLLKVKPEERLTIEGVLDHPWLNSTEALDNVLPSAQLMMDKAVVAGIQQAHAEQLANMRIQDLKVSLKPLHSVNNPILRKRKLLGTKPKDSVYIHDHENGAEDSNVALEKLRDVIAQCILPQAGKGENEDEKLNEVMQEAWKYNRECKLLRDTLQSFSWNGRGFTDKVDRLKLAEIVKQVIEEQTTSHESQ

[6] = test system: Receptor-type tyrosine-protein kinase FLT3 (Homo sapiens), P36888 [UNDEFINED MUTATION]; details: at 10 µM
Sequence of Receptor-type tyrosine-protein kinase FLT3 (Homo sapiens), P36888 [UNDEFINED MUTATION] (P36888 whole entry, looked up, change not shown): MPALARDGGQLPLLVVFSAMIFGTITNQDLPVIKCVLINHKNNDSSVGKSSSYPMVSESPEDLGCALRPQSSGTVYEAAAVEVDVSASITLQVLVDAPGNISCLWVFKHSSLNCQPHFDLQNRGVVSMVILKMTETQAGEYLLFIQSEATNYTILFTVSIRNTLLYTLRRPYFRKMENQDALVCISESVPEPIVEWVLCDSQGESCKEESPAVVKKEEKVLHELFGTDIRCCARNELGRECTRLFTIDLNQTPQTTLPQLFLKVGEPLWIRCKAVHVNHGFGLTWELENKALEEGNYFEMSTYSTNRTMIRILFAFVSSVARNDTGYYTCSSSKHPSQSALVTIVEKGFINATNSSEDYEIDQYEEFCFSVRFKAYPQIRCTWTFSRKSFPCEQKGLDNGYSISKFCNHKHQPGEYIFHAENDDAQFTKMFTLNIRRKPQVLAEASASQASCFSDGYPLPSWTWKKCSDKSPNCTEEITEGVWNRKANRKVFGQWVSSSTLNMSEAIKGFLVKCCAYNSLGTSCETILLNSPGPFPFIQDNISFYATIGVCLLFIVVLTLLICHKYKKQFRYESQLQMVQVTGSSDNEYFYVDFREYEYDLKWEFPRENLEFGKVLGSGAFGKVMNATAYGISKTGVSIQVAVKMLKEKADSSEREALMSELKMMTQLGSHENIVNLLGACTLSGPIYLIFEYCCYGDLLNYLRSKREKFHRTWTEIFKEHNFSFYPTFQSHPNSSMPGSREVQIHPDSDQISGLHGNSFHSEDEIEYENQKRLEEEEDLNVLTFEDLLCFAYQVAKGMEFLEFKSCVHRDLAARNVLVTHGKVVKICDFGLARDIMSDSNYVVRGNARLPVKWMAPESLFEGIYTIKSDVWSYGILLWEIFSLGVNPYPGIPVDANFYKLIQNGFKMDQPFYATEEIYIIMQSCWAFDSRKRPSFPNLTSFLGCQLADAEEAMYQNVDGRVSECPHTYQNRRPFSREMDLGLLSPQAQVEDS

[7] = target: Serine/threonine-protein kinase Nek6 (Homo sapiens) (UniProt Q9HC98); assay: Selectivity interaction (Upstate Kinase Profiler service (Millipore)) EUB0000056c NEK6; details: at 1 µM
[8] = target: T2, Serine/threonine-protein kinase ULK2 (Homo sapiens) (UniProt Q8IYT8); assay: Selectivity interaction (KinomeScan (DiscoverX)) EUB0000655a ULK2; details: at 10 µM
T2 sequence (whole entry): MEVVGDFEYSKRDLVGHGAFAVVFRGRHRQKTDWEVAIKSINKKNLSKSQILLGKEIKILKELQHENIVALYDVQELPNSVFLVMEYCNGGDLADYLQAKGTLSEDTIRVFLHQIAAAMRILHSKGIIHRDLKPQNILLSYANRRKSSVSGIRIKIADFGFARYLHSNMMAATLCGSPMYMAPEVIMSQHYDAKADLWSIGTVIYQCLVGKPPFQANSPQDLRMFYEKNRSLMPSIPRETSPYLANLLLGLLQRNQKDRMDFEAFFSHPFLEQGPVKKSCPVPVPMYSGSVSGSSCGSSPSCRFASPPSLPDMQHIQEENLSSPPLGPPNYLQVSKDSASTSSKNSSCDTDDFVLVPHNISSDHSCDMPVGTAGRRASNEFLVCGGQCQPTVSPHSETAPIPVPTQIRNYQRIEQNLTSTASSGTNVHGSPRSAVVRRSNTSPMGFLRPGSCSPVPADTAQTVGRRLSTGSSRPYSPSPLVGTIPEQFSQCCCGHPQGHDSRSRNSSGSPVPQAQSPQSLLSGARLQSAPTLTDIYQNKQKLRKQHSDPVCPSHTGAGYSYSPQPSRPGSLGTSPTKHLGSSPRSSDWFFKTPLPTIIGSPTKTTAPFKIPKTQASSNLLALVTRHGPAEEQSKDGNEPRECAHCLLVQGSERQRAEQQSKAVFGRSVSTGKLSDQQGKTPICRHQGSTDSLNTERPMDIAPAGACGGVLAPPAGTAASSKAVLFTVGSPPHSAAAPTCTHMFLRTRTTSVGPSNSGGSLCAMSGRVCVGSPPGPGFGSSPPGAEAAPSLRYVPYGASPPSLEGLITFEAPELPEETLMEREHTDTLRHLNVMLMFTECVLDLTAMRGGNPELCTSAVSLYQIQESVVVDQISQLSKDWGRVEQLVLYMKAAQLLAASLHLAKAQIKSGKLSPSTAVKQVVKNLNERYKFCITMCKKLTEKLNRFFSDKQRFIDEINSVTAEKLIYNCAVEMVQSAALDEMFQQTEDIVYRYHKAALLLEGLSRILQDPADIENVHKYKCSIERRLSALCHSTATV

[9] = target: Death-associated protein kinase 1 (Homo sapiens, UniProt P53355); assay: Selectivity interaction (KinomeScan (DiscoverX)) EUB0000655a DAPK1; details: at 10 µM
[10] = target: Serine/threonine-protein kinase 38-like (Homo sapiens) (UniProt Q9Y2H1); assay: Selectivity interaction (LanthaScreen Eu Kinase Binding Assay) EUB0001632a STK38L; details: at 10 µM
Sequence of Serine/threonine-protein kinase 38-like (Homo sapiens) (Q9Y2H1 2-464 limits assumed): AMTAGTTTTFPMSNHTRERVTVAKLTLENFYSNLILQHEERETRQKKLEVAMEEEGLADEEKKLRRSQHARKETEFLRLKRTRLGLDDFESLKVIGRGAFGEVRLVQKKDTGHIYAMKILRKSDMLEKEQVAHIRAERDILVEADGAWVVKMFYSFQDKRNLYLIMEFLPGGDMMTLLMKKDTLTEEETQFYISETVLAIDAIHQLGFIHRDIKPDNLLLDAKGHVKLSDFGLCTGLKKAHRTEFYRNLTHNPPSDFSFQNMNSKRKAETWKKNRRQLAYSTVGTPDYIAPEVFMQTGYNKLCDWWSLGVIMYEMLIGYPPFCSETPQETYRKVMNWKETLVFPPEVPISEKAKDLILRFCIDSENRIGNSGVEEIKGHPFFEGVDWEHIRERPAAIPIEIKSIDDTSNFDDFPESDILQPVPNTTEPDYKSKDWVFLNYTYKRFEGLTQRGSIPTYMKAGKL

[11] = target: N-lysine methyltransferase SMYD2 (Homo sapiens) (UniProt Q9NRG4); assay: Selectivity interaction (Methyltransferase screen (radiometric assays, panel of 8 PRMTs, 21 protein lysine methyltransferases, 3 DNA methyltransferases, and one RNA methyltransferase)) EUB0000271b SMYD2
Sequence of N-lysine methyltransferase SMYD2 (Homo sapiens) (Q9NRG4 whole entry): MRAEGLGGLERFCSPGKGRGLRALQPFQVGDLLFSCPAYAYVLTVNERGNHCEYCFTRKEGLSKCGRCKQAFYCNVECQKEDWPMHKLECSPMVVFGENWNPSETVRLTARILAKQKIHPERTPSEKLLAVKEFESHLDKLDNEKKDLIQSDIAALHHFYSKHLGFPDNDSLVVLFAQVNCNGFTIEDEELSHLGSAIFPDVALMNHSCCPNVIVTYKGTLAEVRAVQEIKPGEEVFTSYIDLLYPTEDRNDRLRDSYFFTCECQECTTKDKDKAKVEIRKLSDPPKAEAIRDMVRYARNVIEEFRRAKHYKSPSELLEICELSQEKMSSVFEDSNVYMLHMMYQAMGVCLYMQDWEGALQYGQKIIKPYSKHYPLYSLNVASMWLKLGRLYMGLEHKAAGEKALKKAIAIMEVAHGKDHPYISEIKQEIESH

Sequence of Melanocortin receptor 3 (P41968 whole entry): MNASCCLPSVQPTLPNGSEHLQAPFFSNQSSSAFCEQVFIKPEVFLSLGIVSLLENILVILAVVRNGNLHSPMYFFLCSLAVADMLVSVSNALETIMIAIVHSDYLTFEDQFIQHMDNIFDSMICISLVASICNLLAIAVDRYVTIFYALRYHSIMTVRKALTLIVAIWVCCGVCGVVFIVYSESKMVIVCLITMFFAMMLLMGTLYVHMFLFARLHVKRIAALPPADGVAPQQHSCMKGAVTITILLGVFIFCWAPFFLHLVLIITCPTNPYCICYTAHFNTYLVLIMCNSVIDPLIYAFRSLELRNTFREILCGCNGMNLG

For `CCC(=O)N1CC[C@H](Nc2ncnc3c2CN(c2cnc(OC)c(C(F)(F)F)c2)CC3)C1` [LENIOLISIB], the pIC50 (Melanocortin receptor 3) was < 4.52.
In the case of `CN(C)CC#Cc1ccc2[nH]c3c(c2c1)-c1nc(N)ncc1CCC3`, the % of control [1] was 20%.
`CC[C@@H]1[C@H](F)C(=O)N[C@@H]1COc1nccc2cc(C(N)=O)c(OC)cc12` [ZIMLOVISERTIB] showed a % of inhibition [2] of 10.8% and a % of inhibition [3] of 1.6%.
`CCC(=O)N1CCN(c2ccc(-n3c(=O)ccc4cnc5ccc(-c6cnc7ccccc7c6)cc5c43)cc2C(F)(F)F)CC1` was tested, and the % of control [4] was 44%.
Work on `Cc1cnc(Nc2ccc(F)cc2Cl)nc1-c1c[nH]c(C(=O)N[C@H](CO)c2cccc(Cl)c2)c1` yielded a % of inhibition (Insulin receptor) of 4%.
Molecule `Cc1cc([C@@H](C)Nc2ccccc2C(=O)O)c2nc(N3CCOCC3)cc(=O)n2c1` [AZD-6482] has a % of control [5] of 100% and a % of control [6] of 53%.
For `Cc1ccc(-c2ccc3c(ccc4sc5c(c43)NC[C@@H](C)NC5=O)n2)cn1`, the % of inhibition [7] was -6%.
With `CN(C)CCOc1ccc(-c2nc(-c3ccncc3)c(-c3ccc4c(c3)CC/C4=N\O)[nH]2)cc1` the % of control [8] was 90% and the % of control [9] was 99%.
`Cn1cc(-n2cnc3c(NCc4nc5cc(Cl)c(Cl)cc5[nH]4)nc(N4CCOCC4)nc32)cn1` was tested, and the % of inhibition [10] was -54.8%.
For `Cc1cc(C)cc([C@@H]2c3cc(C)ccc3NC(=O)CN2C(=O)c2ccc(Br)s2)c1`, the % of activity ([11]; at 1 µM) was 101% and the % of activity ([11]; at 10 µM) was 96.7%.
